# Reference: a melting point compilation (Tetko et al.; mined from patent text by program, amines drawn as free bases though some values may be those of a salt)
row,Compound,melting point
1,O=C(O)/C=C/c1cnc(-c2ccc(O)c(C34CC5CC(CC(C5)C3)C4)c2)cn1,70 to 71 °C
2,CN1CCc2c(Br)ccc([N+](=O)[O-])c2C1,85 to 87 °C
3,N#Cc1ccc(O)c(Cc2cc(F)cc(Cc3cc(C#N)ccc3O)c2O)c1,222 °C
4,O=S(=O)(NCCCn1cncn1)c1ccc(Cl)cc1,77 to 79 °C
5,CN1CCN(c2cc3nc(C(C)(C)C)sc3cc2NC(=S)N2CCCCC2)CC1,202 to 206 °C
6,COc1cccc2cc(C(=O)O)c(C(=O)O)cc12,210 to 212 °C
7,Cc1cccc(C(=O)N2CCC3(CC2)CSC2=C(O3)c3ccccc3C(=O)C2=O)c1,188 to 190 °C
8,CC(C)C(=O)c1[nH]c(C(CC2CCCC2)c2ccc(S(C)(=O)=O)cc2)nc1F (stereo not drawn),161 to 162 °C
9,CN(C)C=NC1CCN(Cc2ccccc2)CC1,61 to 65 °C
10,C=Cc1ccc(C=CC#N)cc1,45.8 °C
11,COC(=O)c1ccc(NC2CC2)c(S(N)(=O)=O)c1,158 to 161 °C
12,Cc1c(N)ccc2[nH]cc(CCCO)c12,141 to 142 °C
13,CCCCCCC(=O)Nc1ccn(C2OC(CO)C(O)C2O)c(=O)n1 (stereo not drawn),131 to 136 °C
14,CCOc1cc(Cc2cnc(N)nc2N)cc2c1OC(C)(C)C=C2c1ccncc1,223 to 226 °C
15,O=S(=O)(CCCCl)Nc1cccc(COc2cccc3cccnc23)c1,142 to 143 °C
16,COC(=O)[C@]1(C)Cc2c([nH]c3ccc(Cl)cc23)[C@@H](c2cccc(O)c2)N1 (racemic),240 to 241 °C
17,CN(c1ccccc1)S(=O)(=O)c1ccc(C#CC(C)(O)C(F)(F)F)cc1 (stereo not drawn),116 to 118 °C
18,CCOC(=O)C1=C(C)NC(C)=C(C(=O)OCC)C1c1cc2ccccc2s1,167 to 169 °C
19,COC(=O)[C@@H]1CCCN1C(=O)c1cccc(O)c1[N+](=O)[O-],114 to 116 °C
20,COc1cc(Cc2cnc(NCCCCc3ncccc3OC)[nH]c2=O)ccn1,72 to 74 °C
21,Nc1cc(CBr)nn1-c1c(Cl)cc(C(F)(F)F)cc1Cl,220 °C
22,COc1c(C)cc(C)cc1C(N)=O,109 to 113 °C

row,Compound,melting point
1,C=C(C)C(=O)OCCCCCCS(=O)(=O)c1ccc(O)c(C)c1,84 to 85 °C
2,O=C(O)CCCCCCCCCCCCCCCCCCCN1C(=O)C=CC1=O,104 to 106 °C
3,NC(=O)C1(CCCNC2CC2)c2ccccc2-c2ccccc21,163 to 165 °C
4,Cc1cncn1CC(=O)CCc1ccc(Cl)cc1,227 to 228 °C
5,Cn1c2c(c3ccccc31)Cc1ccccc1-2,152 °C
6,CN1C(=O)CN=C(c2ccccc2F)c2c1ccc(NC(=O)NCCO)c2Cl,150 to 153 °C
7,CC(C)OC(=O)c1ccccc1C(=O)O,73 to 77 °C
8,CCCCCCCOc1cc2c(cc1C(=O)c1ccc(C(=O)O)cc1)C(C)(C)CCC2(C)C,154 to 158 °C
9,CCOC(=O)c1cn(C(C)(C)C)c2nc(F)c(Cl)cc2c1=O,155 °C
10,O=[N+]([O-])c1cc(-c2cn3c(n2)sc2ccccc23)cc(O)c1O,303 to 305 °C
11,CCOC(=O)Cn1cnc2ccccc21,63 to 64 °C
12,CCOC(=O)c1c(C)nc(N2CCCCC2)c2nccnc12,73 to 74 °C
13,CC1(C)Oc2ccc(S(=O)(=O)c3ccccc3)cc2[C@@H](O)[C@@H]1Br (relative stereo),103 to 105 °C
14,Cc1cc([C@@H]2CCC(=O)N2)on1,90 to 91 °C
15,COc1cnc(CSc2nc3cc4c(cc3[nH]2)OC(F)(F)O4)c(C)c1OC,160 to 161 °C
16,NNc1ccc(C(=O)O)cn1,292 to 293 °C
17,CCOC(=O)c1cc(C(Br)Br)cnc1Br,88 to 89 °C
18,COc1ccc(C=CC2=NN(C(C)=O)C(C)Cc3cc(OC)c(OC)cc32)c(OC)c1 (stereo not drawn),85 to 87 °C
19,CCOc1ccc([N+](=O)[O-])c(C=C2NC(=O)NC2=O)c1,243 to 245 °C
20,C=CS(=O)(=O)Nc1cccc(Nc2nc(N[C@H](C)C(C)(C)C)c3nc[nH]c3n2)c1,133 to 136 °C
21,O=C/C=C/c1ccc2ccccc2n1,85 °C
22,Nc1ccc(S(=O)(=O)Nc2nnc(S(N)(=O)=O)s2)cc1,241 to 242 °C

row,Compound,melting point
1,Cc1cc(Nc2ccc(C(F)(F)F)cc2C(=O)O)n(-c2ccccn2)n1,228 to 229 °C
2,Cc1cc2n(n1)-c1ccc(Cl)cc1C(c1ccccc1)NC2=O (stereo not drawn),258 to 261 °C
3,CCn1nnc2cc3c(cc2c1=O)OC1CCCN1C3=O (stereo not drawn),186 to 188 °C
4,O=C1c2c(cc(O)c(Cl)c2Cl)CC1(c1ccccc1)c1ccccc1,207 to 213 °C
5,Nc1cc(C=O)nc(CC2CC2)c1F,99 to 100 °C
6,O=C(NCC12CC3CC(CC(C3)C1)C2)c1cc(-c2cc(F)cnc2N2CCC(C(=O)O)CC2)ccc1Cl,130 to 135 °C
7,CCCC(=O)c1c(CC)nc2c(-c3ccc(Cl)cc3Cl)nccn12,159 to 160 °C
8,CCC(C)C(=O)c1nc(C)nc2c1c(C)c(C)n2-c1c(C)cc(C)cc1C (stereo not drawn),133 to 135 °C
9,COC(=O)CCC1CCC(=O)N1 (stereo not drawn),52 to 53 °C
10,Brc1ccc2cc(Cc3cc4ccc(Br)cc4o3)oc2c1,146 to 147 °C
11,NC(=O)N1CC(Oc2cccc(Br)c2)C1,188 to 189 °C
12,Cc1nc(Sc2ccccc2)sc1C(=O)O,187 to 188 °C
13,O=C(Cl)c1c(Cl)ccc2c1OCCO2,50 °C
14,COc1cc(C(=O)n2ccnc2)cc([N+](=O)[O-])c1OC,136 to 137 °C
15,Cc1csc2c1S(=O)(=O)N=C(NC(C)C)N2,152 to 154 °C
16,CCC1NC(c2cc(Cl)nc(Cl)c2)=NC(=O)C1(CC)C(=O)OC (stereo not drawn),202 to 203 °C
17,CCCCCCCC[C@H]1C[C@H]1CCCCCCCC(=O)NC(Cc1ccccc1)Cc1ccccc1 (relative stereo),40 to 45 °C
18,Cc1c(O)cccc1NC(=O)CC12CC3CC(CC(C3)C1)C2,211 °C
19,O=C(c1cnccn1)N1CCN(Cc2ccc3c(c2)Cc2c(-c4ccsc4)n[nH]c2-3)CC1,202 to 204 °C
20,CSc1cc(C)c2ccc(N)nc2n1,204 to 209 °C

# Results, then the compound that gave them:
row,melting point,Compound
1,103 to 104 °C,Cc1cc(F)ccc1Nc1nc(N(C)c2ccccc2)c2cc(OCCCN(C)C)ccc2n1
2,180 to 182 °C,CC1c2cccn2-c2ccc(F)cc2N1S(=O)(=O)c1ccc(O)cc1 (stereo not drawn)
3,159 to 160 °C,CCCCN(c1cccc(-c2ccnc3c([N+](=O)[O-])cnn23)c1)S(=O)(=O)c1ccccc1
4,252 to 253 °C,CNC(=O)c1ccccc1NC(=O)COc1ccc(C(C)=O)cc1
5,218 to 220 °C,COc1cc(CCC(=O)Nc2cccc(C(=O)O)c2)ccc1O
6,191 to 192 °C,Cc1oc(-c2ccco2)nc1COc1ccc(COc2nn(Cc3ccccc3)cc2C(=O)O)cc1Cl
7,184 to 188 °C,CC(C)NC(=O)Nc1nc2nc(N)ncc2cc1-c1c(Cl)cccc1Cl
8,216 to 217 °C,CNC(=O)c1ccccc1Nc1nc(Nc2ccc3c(c2)COCCN3C)ncc1Cl
9,89 to 96 °C,CCOC(=O)c1cccc(Cc2c(C(=O)OCC)n(Cc3cc4c(cc3CC)OCO4)c3ccc(OCOC)cc3c2=O)c1
10,178 to 181 °C,COc1ccc(Cn2nnc(C3=C(O)c4ccccc4S(=O)(=O)N3C)n2)cc1
11,230 to 233 °C,NC(=O)CNS(=O)(=O)c1ccc(CCN2CC=C(c3c[nH]cc3-c3ccncc3)CC2c2ccc(F)cc2)cc1 (stereo not drawn)
12,117 to 120 °C,CCOC(=O)Cc1ccc(NC(=O)C(CC(C)C)NS(=O)(=O)c2ccc(Cl)cc2)cc1 (racemic)
13,134 to 136 °C,COc1cc(C(=O)Oc2cc(Cl)c(Cl)cc2Cl)ccc1Cc1cn(C)c2ccc([N+](=O)[O-])cc12
14,222 to 224 °C,COc1ccc(C2=NN(c3ccc(C(=O)O)cc3)C(=O)[C@H]3CC=CC[C@@H]23)cc1Cl (relative stereo)
15,196 to 198 °C,CCCCCCCNC(=O)c1ccccc1CN1C(=O)C2(COc3cc4c(cc32)CCO4)c2ccccc21 (stereo not drawn)
16,114 to 115 °C,CCCCCCCCOc1ccc(-c2nc(-c3ccccc3)c(-c3ccccc3)n2CCCCCCCC(=O)O)cc1
17,163 to 164 °C,C=C(C(=O)c1ccc(C(=O)O)cc1)c1ccc(OC)c(-c2cccs2)c1

row,melting point,Compound
1,142 to 143 °C,NC(=O)CCC/C=C\[C@@H]1C[C@@H](NS(=O)(=O)c2ccc(Cl)cc2)CN1S(=O)(=O)c1ccc(Cl)cc1
2,106 °C,CCC1SC(=O)N(Cc2ccc(C(=O)O)cc2)N=C1c1ccc(O)c(O)c1 (stereo not drawn)
3,264 to 265 °C,CCc1cn2ccc(NC(=O)c3cc4cc(C(F)(F)F)cnc4n3Cc3cccc(F)c3)cc2n1
4,186 to 187 °C,CCOC(=O)CCCCCCCn1cnc(-c2ccc(O)cc2)c1-c1ccc(O)cc1
5,205 to 207 °C,CCNC(=O)Nc1ccc(-c2sc3c(c2CN(C)CCOC)c(=O)n(-c2ccc(N)cc2)c(=O)n3Cc2c(F)cccc2F)cc1
6,104 to 107 °C,COC(=O)c1ccc(NCc2ccccc2)cn1
7,110 to 111 °C,CCn1nc(OCCCc2ccc(OC(C)C)cc2OCc2ccc(Cl)cc2Cl)cc1CCC(=O)O
8,133 °C,COc1ccc(S(=O)(=O)N(CCNS(C)(=O)=O)c2ccc(Cl)cc2Cc2c(F)cccc2F)cc1OC
9,98 to 101 °C,COc1ccc2c(c1)CCC(c1ccccc1)=C2c1ccccc1
10,68 to 69 °C,CCCCCCCNc1cccc2c1CN(c1cc(C)cc(C)c1)C2=O
11,185 °C,Cc1ccc(C)c(Oc2oc(-c3ccc(Cl)cc3)nc2CC(=O)O)c1
12,167 to 168 °C,O=c1c2cccnc2c(-c2cccc([N+](=O)[O-])c2)nn1Cc1ccncc1
13,220 to 221 °C,O=C(C(=O)c1ccc(Oc2ccc(O)cc2)cc1)c1ccc(Oc2ccc(O)cc2)cc1
14,247 to 251 °C,O=C(COc1ccc(-c2ccccc2)cc1)Nc1cscc1C(=O)O
15,151 to 152 °C,COc1ccccc1CN1CCN(CCCOc2ccc3c(C)cc(=O)[nH]c3c2)CC1
16,74.5 to 77.5 °C,Cc1ccc(C(=O)N(c2ccccc2)c2ccc(OCCN(C)C)cc2)cc1
17,72 to 74 °C,CN1CCN(c2cccc3ccc(C(=O)NCc4ccc(Cl)cc4)cc23)CC1
